Data set [1] has as its system coughs induced by mechanical stimulation of the tracheal mucosa. The data set is described as follows: Antitussive effect on coughs induced by mechanical stimulation of the tracheal mucosa in dogs ("Coughing dog" method). It is filed as in vivo. Particulars: for ED50: Canis lupus familiaris, iv, dog, mechanical stimulation, i.v., fiducial limits (P = 0.05), read-out: AtD50 (50% antitussive dose). The procedure: a. Effect on coughs induced by mechanical stimulation of the tracheal mucosa in dogs
More than 4 groups of dogs, each consisting of 5 animals of either sex weighing 6-10 kg are used. The test is conducted according to "Coughing dog" method [Jap. J. Pharmacol. 2, 7-13 (1952); Pharm. Bull. (Japan) 2 298 (1954); and Jap. J. Pharmacol. 4 130 (1955)]. Coughs are induced by mechanical stimulation with a bristle stimulator made of pig bristles on the tracheal bifurcation through a chronically-built tracheal fistula.
Stimulation is applied by constantly and intensely moving the stimulator up and down 10 times for 20 seconds and the stimulation is repeated every 5 minutes. The changes of the inner pressure of the trachea brought about by coughs are recorded on a smoked paper. The animals are given graded doses of the test compound or the standard compound by intravenous injection.
The antitussive effect of the compounds is determined by the changes in both the amplitude and frequency of the cough curves on the smoked paper and the duration of such changes. When the amplitude and/or the frequency are decreased by more than 20% as compared with those before administration of the drug and when the decrease lasts for more than 20 minutes, the effect is determined to be significant. On the basis of the criteria of evaluation, the 50% antitussive dose (hereinafter referred to as AtD50) is calculated according to the method of Litchfield and Wilcoxon.

For data set [2], the system named is coughs induced by electrical stimulation of central stump of the superior laryngeal nerve. Nature of the data set: Antitussive effect on coughs induced by electrical stimulation of central stump of the superior laryngeal nerve in anesthetized cats. It is filed as in vivo. To be noted: Felis catus, iv, cat, i.v., fiducial limits (P = 0.05), read-out: AtD50 (50% antitussive dose). On the procedure:
More than 4 groups of cats, each consisting of 6 animals of either sex weighing 2-3 kg are used. The animals are lightly anesthetized by intraperitoneal injection of 20 mg/kg of pentobarbital sodium. The test is conducted according to the method of Domenjoz (Arch. Exp. Path. u. Pharmakol, 215, 19 (1952)].
The changes of inner pressure of the trachea brought about by coughs are recorded. The animals are given graded doses of the test compound or the standard compound by intravenous injection.
The antitussive effect of the compounds is determined by the changes in both the amplitude and frequency of the cough curves and the duration of the changes. When the amplitude and/or the frequency of the coughs induced by a stimulus of moderate intensity are decreased by more than 20% as compared with those before administration of the drug and when the decrease lasts for more than 20 minutes, the effect is determined to be significant. On the basis of the criteria of evaluation, the AtD50 is calculated according to the method of Lichfield and Wilcoxon.

Data set [3] relates to coughs induced by mechanical stimulation of the tracheal mucosa. Nature of the data set: Antitussive effect on coughs induced by mechanical stimulation of the tracheal mucosa in anesthetized cats ("Coughing cat" method). It counts as in vivo. Particulars: for ED50: Felis catus, iv, cat, mechanical stimulation, i.v., fiducial limits (P = 0.05), read-out: AtD50 (50% antitussive dose). The procedure:
b. Effect on coughs induced by mechanical stimulation of the tracheal mucosa in anesthetized cats
More than 4 groups of cats, each consisting of 6 animals of either sex weighing 2-3 kg are used. The animals are lightly anesthetized by intraperitoneal injection of 20 mg/kg of pentobarbital sodium. The test is conducted according to "Coughing cat" method [Folia Pharmacol japon. 55 99 (1959)].
Coughs are induced in the same manner as described above except that a bristle stimulator made of whiskers of rabbit is used. The AtD50 is calculated in the same manner as described above.

Data set [4] in a line: Acute toxicity in mice, determined as LD50. Particulars: in vivo, mouse; for LD50 at 168 h: po, P.O., observed one week; for LD50 at 72 h: sc, S.C., observed 72 hours. On the procedure:
(§1) Acute Toxicity in Mice and in Rats -- Determined as LD50
a. More than 5 groups of male ddy-strain mice, each consisting of 10 animals weighing 18-20 g are used. The animals are given graded doses of the test compound or the standard compound by subcutaneous injection and are observed for 72 hours.
b. More than 6 groups of male dd-strain mice, each consisting of 20 animals weighing 18-20 g are used. The animals are given graded doses of the test compound or the standard compound orally and are observed for one week.
(§2) The LD50 is calculated according to the method of Litchfield and Wilcoxon [J. Pharmacol. & Exper. Therap. 96, 99 (1949)].

Data set [5] can be described thus: Acute toxicity in rats, determined as LD50. Particulars: in vivo, po; rat, P.O., observed one week. On the procedure: as §1
c. More than 5 groups of male Wistar strain rats, each consisting of 15 animals weighing 110-150 g are used. The animals are given graded doses of the test compound and the standard compound orally and are observed for one week.
as §2

Data set [6] deals with coughs induced by mechanical stimulation on the mucosa of the tracheal bifurcation. The data set is described as follows: Comparison of equi-active antitussive doses for various routes of administration in anesthetized dogs. It counts as in vivo, dog. Particulars: for Site of antitussive action: central nerve: conclusion in words; for Dose giving nearly the same antitussive effect: dog. The procedure:
a. Comparison of equi-active doses for various routes of administration
Five dogs weighing 8-10 kg are used. Polyethylene tubes are previously installed in the animals in the femoral vein, the vertebral artery and the cerebello-medullary cistern. The animals are lightly anesthetized by intraperitoneal injection of 20 mg/kg of pentobarbital sodium. The hydrochloride of 2-allyloxy-4-chloro-β-piperidinopropiophenone is given through the polyethylene tubes. Coughs are induced by mechanical stimulation on the mucosa of the tracheal bifurcation. The doses necessary to obtain the same degree of antitussive effect as that obtained by the administration through the femoral vein are determined.

Data set [7] has as its system pulmonary stretch receptor. The data set is described as follows: Effect on the pulmonary stretch receptor impulses in guinea pigs. To be noted: for Change of voltage of stretch receptor impulses (as compared with that before treatment with drug): reduced to / Time required to return to the level before treatment with drug / Change of voltage of stretch receptor impulses (as compared with that before treatment with drug): guinea pig. It is filed as in vivo, guinea pig. The text has this: b. Effect on the pulmonary stretch receptor impulses
Five guinea pigs weighing 400-600 g are used. The animals are anesthetized by subcutaneous injection of 1.2 g/kg of urethane and disposed in a supine position. The chest is opened under artificial ventilation. The left vagus nerve is sectioned at the cervical region and the peripheral stumps is placed on a bipolar platinum electrode. The impulses from the pulmonary stretch receptors are observed on an oscilloscope and recorded with a long-recording camera.
The animals are given graded doses of the hydrochloride of 2-allyloxy-4-chloro-β-piperidinopropiophenone by intravenous injection.
The action of the compound on a peripheral nerve is determined by the change of the voltage of the stretch receptor impulses.
As a control, the same test is conducted using benzonatate which is known as a peripherally acting antitussive.

Molecules are shown by their SMILES. Counter-ions that a name gives are not always drawn.

Turning to `COc1ccc2c3c1O[C@H]1[C@@H](O)C=C[C@H]4[C@@H](C2)N(C)CC[C@@]341` [Codeine phosphate, reference compound], the ED50 in data set [1] came out at 2.5 mg/kg; in data set [2] it was 2.1 mg/kg; in data set [3] it was 2.3 mg/kg. Besides, the LD50 – broadly, the dose at which mortality reaches 50% – at 168 h in data set [4] stood at 729 mg/kg; in data set [5], 807 mg/kg. The molecule further came in with an LD50 at 72 h in data set [4] of 191 mg/kg.
On to `C=CCOc1cc(Cl)ccc1C(=O)CCN1CCCCC1` [2-allyloxy-4-chloro-β-piperidinopropiophenone], for which the “Site of antitussive action: central nerve” value in data set [6] is “acts centrally”. In data set [7] (conclusion in words), the “Site of antitussive action: peripheral nerves” value is “exerts a considerable action on peripheral nerves”.
Consider `CCCCNc1ccc(C(=O)OCCOCCOCCOCCOCCOCCOCCOCCOCCOC)cc1` [Benzonatate], for which the “Change of voltage of stretch receptor impulses (as compared with that before treatment with drug): reduced to” value in data set [7] (1.0 mg/kg) is recorded as 3/4; in data set [7] (2.0 mg/kg), 1/2; in data set [7] (4.0 mg/kg), “zero”. Also, the figures for the “Time required to return to the level before treatment with drug” value in data set [7] (1.0 mg/kg), in data set [7] (2.0 mg/kg) and in data set [7] (4.0 mg/kg) were 10 min, 30 min and 30 to 40 min, respectively. Moreover, in data set [7] (0.1-0.5 mg/kg), the “Change of voltage of stretch receptor impulses (as compared with that before treatment with drug)” value is reported as “none”.
Consider `C=CCOc1cc(Cl)ccc1C(=O)CCN1CCCCC1` [2-Allyloxy-4-Chloro-β-Piperidinopropiophenone Hydrochloride], for which the ED50 was 3.3 mg/kg in data set [1], 4.2 mg/kg in data set [2] and 4.8 mg/kg in data set [3]. For the same molecule, the “Antitussive effect compared with codeine phosphate” value is “antitussive effect equal to codeine phosphate” in data set [1] (dogs, statement in words) and “antitussive effect equal to codeine phosphate” in data set [3] (cats, statement in words). Moreover, the LD50 at 168 h in data set [4] is 240 mg/kg; in data set [5], 1020 mg/kg. The LD50 at 72 h in data set [4] is 105 mg/kg. For the same molecule, the “Site of antitussive action: central nerve” value in data set [6] (Hydrochloride) is “exerts its action on the central nerve”. The “Dose giving nearly the same antitussive effect” value in data set [6] (cerebello-medullary cistern) was 0.06 to 0.1 mg/kg; in data set [6] (femoral vein) it was 4.30 mg/kg; in data set [6] (vertebral artery), 0.4 to 0.8 mg/kg. Moreover, in data set [6] (statement in words), the “Ratio of effective doses for the three routes compared with codeine” value is “almost the same as that obtained by using codeine”. The “Time required to return to the level before treatment with drug” value in data set [7] (i.v., 5.0 mg/kg) is 10 to 20 min; in data set [7] (i.v., 10.0 mg/kg), about 30 min. Besides, the “Change of voltage of stretch receptor impulses (as compared with that before treatment with drug): reduced to” value in data set [7] (i.v., 10.0 mg/kg) was 1/2. The “Change of voltage of stretch receptor impulses (as compared with that before treatment with drug)” value in data set [7] (i.v., 1.0-2.0 mg/kg) is recorded as “none”. Besides, in data set [7] (statement in words), the “Effect on the impulses of the pulmonary stretch receptor” value is reported as “repress the impulses of the pulmonary stretch receptor”.
